Target: T1, USP7 (Homo sapiens, UniProt Q93009)
T1 construct: USP7, construct USP7 (208-1102) 6*His, Viva Biotech; initiator Met (N); TEV site (C); 6*His (C); purchased Viva Biotech
Assay: USP7 Assay A and B (Ubiquitin-Rhodamine 110 assay)
Format: biochemical
Settings: Ub-Rh110 substrate 25 nM, read-out: USP7_IC50
Experimental: Each assay was performed in a final volume of 15 μL in assay buffer containing 20 mM Tris-HCl (pH 8.0, (1M Tris-HCl, pH 8.0 solution; Corning 46-031-CM)), 1 mM GSH (L-Glutathione reduced; Sigma #G4251), 0.03% BGG (0.22 μM filtered, Sigma, #G7516-25G), and 0.01% Triton X-100 (Sigma, #T9284-10L). Nanoliter quantities of either an 8-point or 10-point, 3-fold serial dilution in DMSO was pre-dispensed into assay plates (Perkin Elmer, ProxiPlate-384 F Plus, #6008269) for a final test concentration range of either 25 μM to 11 nM or 25 μM to 1.3 nM, respectively. The final concentration of the enzyme (USP7, construct USP7 (208-1102) 6*His, Viva Biotech) in the assay was 62.5 pM. Final substrate (Ub-Rh110; Ubiquitin-Rhodamine 110, R&D Systems #U-555) concentration was 25 nM with [Ub-Rh110]<<Km. 5 μL of 2× enzyme was added to the assay plates (pre-stamped with compound) and preincubated with USP7 for 30 min. 5 μL of 2×Ub-Rh110 was then added to assay plates. Plates were incubated stacked for 20 min at room temperature before 5 μL of stop solution (final concentration of 10 mM citric acid in assay buffer (Sigma, #251275-500G)). Fluorescence was read on the Envision (Excitation at 485 nm and Emission at 535 nm; Perkin Elmer) or on the PheraSTAR (Excitation at 485 nm and Emission at 535 nm; BMG Labtech).
Each assay was performed in a final volume of 20 μL in assay buffer containing 20 mM Tris-HCl (pH 8.0, (1M Tris-HCl, pH 8.0 solution; Corning 46-031-CM)), 2 mM CaCl2 (1M calcium chloride solution; Sigma #21114), 1 mM GSH (L-Glutathione reduced; Sigma #G4251), 0.01% Prionex (0.22 μM filtered, Sigma #G-0411), and 0.01% Triton X-100. Stock compound solutions were stored at −20° C. as 10 mM in DMSO. Up to 1 month prior to the assay, 2 mM test compounds were pre-dispensed into assay plates (Black, low volume; Corning #3820) and frozen at −20° C. Prestamped assay plates were allowed to warm to room temperature on the day of the assay. For the screen, 100 nL of 2 mM was pre-dispensed for a final screening concentration of 10 μM (DMSO(fc)=0.5%). For follow-up studies, 250 nL of an 8-point, 3-fold serial dilution in DMSO was pre-dispensed into assay plates for a final test concentration of 25 μM-11 nM (1.25c % DMSO final concentration). Unless otherwise indicated, all follow-up assays were run on triplecate plates. Enzyme (USP7, construct Met (208-1102)-TEV-6*His; Viva Q93009-1) concentration and incubation times were optimized for the maximal signal-to-background while maintaining initial velocity conditions at a fixed substrate concentration. The final concentration of the enzyme in the assay was either 75 pM or 250 pM. Final substrate (Ub-Rh110; Ubiquitin-Rhodamine 110, R&D Systems (biotechne)#U-555) concentration was 25 nM with [Ub-Rh110]<<Km. Compounds were either not preincubated or preincubated with USP7 between 30 to 120 min prior to the addition of 10 μL of 2×Ub-Rh110 to compound plates. Plates were incubated stacked for either 23 or 45 min at room temperature before fluorescence was read on the Envision (Excitation at 485 nm and Emission at 535 nm; Perkin Elmer) or on the PheraSTAR (Excitation at 485 nm and Emission at 535 nm; BMG Labtech).
Data from USP7 Assays A and B were reported as percent inhibition (inh) compared with control wells based on the following equation: % inh=1−((FLU−AveLow)/(AveHigh−AveLow)) where FLU=measured Fluorescence, AveLow=average Fluorescence of no enzyme control (n=16), and AveHigh=average Fluorescence of DMSO control (n=16). IC50 values were determined by curve fitting of the standard 4 parameter logistic fitting algorithm included in the Activity Base software package: IDBS XE Designer Model205. Data was fitted using the Levenburg Marquardt algorithm.

T1 sequence (Q93009 208-1102): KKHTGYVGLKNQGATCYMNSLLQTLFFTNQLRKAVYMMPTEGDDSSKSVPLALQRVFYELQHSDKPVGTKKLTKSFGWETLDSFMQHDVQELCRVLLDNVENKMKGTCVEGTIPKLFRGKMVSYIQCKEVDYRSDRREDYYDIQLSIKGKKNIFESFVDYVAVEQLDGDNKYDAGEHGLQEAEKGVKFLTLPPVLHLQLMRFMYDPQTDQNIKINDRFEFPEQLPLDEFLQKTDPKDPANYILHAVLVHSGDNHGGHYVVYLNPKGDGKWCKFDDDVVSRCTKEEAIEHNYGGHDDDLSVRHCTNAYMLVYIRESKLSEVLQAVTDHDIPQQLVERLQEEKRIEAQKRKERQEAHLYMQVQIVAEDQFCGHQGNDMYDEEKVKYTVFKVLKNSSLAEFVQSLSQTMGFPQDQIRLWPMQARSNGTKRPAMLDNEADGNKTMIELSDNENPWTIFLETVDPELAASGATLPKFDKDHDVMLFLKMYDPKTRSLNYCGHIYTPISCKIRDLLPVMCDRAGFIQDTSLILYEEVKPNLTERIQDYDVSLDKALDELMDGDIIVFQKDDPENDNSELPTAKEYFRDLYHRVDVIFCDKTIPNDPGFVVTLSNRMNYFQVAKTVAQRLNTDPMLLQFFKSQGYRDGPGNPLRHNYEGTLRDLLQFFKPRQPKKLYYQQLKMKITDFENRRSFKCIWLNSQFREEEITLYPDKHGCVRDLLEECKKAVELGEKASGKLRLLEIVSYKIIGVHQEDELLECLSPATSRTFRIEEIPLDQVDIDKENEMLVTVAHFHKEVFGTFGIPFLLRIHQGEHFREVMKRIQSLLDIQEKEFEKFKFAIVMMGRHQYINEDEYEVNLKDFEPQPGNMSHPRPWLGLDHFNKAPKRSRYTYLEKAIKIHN

| Compound | IC50 |
| --- | --- |
| O=C(c1ccc(F)cc1)N1CCC(O)(Cn2cnc3c(-c4ccc(CO)cc4)nsc3c2=O)CC1 [Compound I-23, 6-{[1-(4-fluorobenzoyl)-4-hydroxypiperidin-4-yl]methyl}-3-[4-(hydroxymethyl)phenyl]-6H,7H-[1,2]thiazolo[4,5-d]pyrimidin-7-one] | 1 to 10 µM |
| COc1ccc(C(=O)N2CCC(O)(Cn3cnc4c(-c5ccc(CO)cc5)nsc4c3=O)CC2)cc1 [Compound I-24, 6-{[4-hydroxy-1-(4-methoxybenzoyl)piperidin-4-yl]methyl}-3-[4-(hydroxymethyl)phenyl]-6H,7H-[1,2]thiazolo[4,5-d]pyrimidin-7-one] | 1 to 10 µM |
| O=C(CCC(F)(F)F)N1CCC(O)(Cn2cnc3c(-c4ccc(F)cc4)nsc3c2=O)CC1 [Compound I-25, 3-(4-fluorophenyl)-6-{[4-hydroxy-1-(4,4,4-trifluorobutanoyl)piperidin-4-yl]methyl}-6H,7H-[1,2]thiazolo[4,5-d]pyrimidin-7-one] | > 10 µM |
| CN(C)C(=O)N1CCC(O)(Cn2cnc3c(-c4ccc(NCCN5CCCCC5)cc4)nsc3c2=O)CC1 [Compound I-26, 4-hydroxy-N,N-dimethyl-4-{[7-oxo-3-(4-{[2-(piperidin-1-yl)ethyl]amino}phenyl)-6H,7H-[1,2]thiazolo[4,5-d]pyrimidin-6-yl]methyl}piperidine-1-carboxamide] | 1 to 10 µM |
| O=C1NCCN1CCOc1cccc(-c2nsc3c(=O)n(CC4(O)CCN(C(=O)C5CC5)CC4)cnc23)c1 [Compound I-27, 1-[2-(3-{6-[(1-cyclopropanecarbonyl-4-hydroxypiperidin-4-yl)methyl]-7-oxo-6H,7H-[1,2]thiazolo[4,5-d]pyrimidin-3-yl}phenoxy)ethyl]imidazolidin-2-one] | 1 to 10 µM |
| C[C@H](CC(=O)N1CCC(O)(Cn2cnc3cc[nH]c3c2=O)CC1)c1ccccc1 [Compound I-28, 3-({4-hydroxy-1-[(3R)-3-phenylbutanoyl]piperidin-4-yl}methyl)-3H,4H,5H-pyrrolo[3,2-d]pyrimidin-4-one] | < 0.5 µM |
| O=C(c1ccccc1)N1CCC(O)(Cn2cnc3c(-c4ccccc4)n[nH]c3c2=O)CC1 [Compound I-29, 6-[(1-benzoyl-4-hydroxypiperidin-4-yl)methyl]-3-phenyl-1H,6H,7H-pyrazolo[4,3-d]pyrimidin-7-one] | 0.5 to 1 µM |
| O=C(c1ccc(F)cc1)N1CCC(O)(Cn2cnc3c(-c4ccc(F)cc4)nsc3c2=O)CC1 [Compound I-30, 6-{[1-(4-fluorobenzoyl)-4-hydroxypiperidin-4-yl]methyl}-3-(4-fluorophenyl)-6H,7H-[1,2]thiazolo[4,5-d]pyrimidin-7-one] | > 10 µM |
| COc1ccc(C(=O)N2CCC(O)(Cn3cnc4c(-c5ccc(OC)cc5)nsc4c3=O)CC2)cc1 [Compound I-31, 6-{[4-hydroxy-1-(4-methoxybenzoyl)piperidin-4-yl]methyl}-3-(4-methoxyphenyl)-6H,7H-[1,2]thiazolo[4,5-d]pyrimidin-7-one] | 1 to 10 µM |

From patent US10377773B2, “Isothiazolopyrimidinones, pyrazolopyrimidinones, and pyrrolopyrimidinones as ubiquitin-specific protease 7 inhibitors” (FORMA Therapeutics, Inc., priority 2015, dated 2019)
